The values that follow come from US8299111B2, “Compounds which modulate the CB2 receptor” (Boehringer Ingelheim International GmbH, priority 2006, dated 2012).

T1 sequence (P34972 whole entry): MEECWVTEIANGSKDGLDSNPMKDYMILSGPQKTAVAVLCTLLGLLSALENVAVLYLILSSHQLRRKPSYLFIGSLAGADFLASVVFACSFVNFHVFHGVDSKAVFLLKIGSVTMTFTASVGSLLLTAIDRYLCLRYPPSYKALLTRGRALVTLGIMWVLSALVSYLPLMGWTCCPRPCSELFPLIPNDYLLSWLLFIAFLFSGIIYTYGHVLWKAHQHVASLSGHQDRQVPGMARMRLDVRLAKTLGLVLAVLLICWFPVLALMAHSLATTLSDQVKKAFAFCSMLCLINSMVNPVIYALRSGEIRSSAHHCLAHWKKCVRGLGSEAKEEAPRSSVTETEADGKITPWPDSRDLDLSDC

This assay has as its target T1, human CB2R (Homo sapiens, UniProt P34972).
T1 construct: host or cells: CHO cells
The experiment in a line: CB2R mediated modulation of cAMP synthesis. Format: cell-based. The conditions noted are these: found through the use of the above described assays (binding and cAMP); CHO cells expressing human CB2R, forskolin-stimulated cAMP. In outline: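 EC50 values reflect inhibition of cAMP made in response to 10 uM forskolin (with 1 mM IBMX, 0.25% BSA) over 30 min at 37 °C in human CB2R-expressing CHO cells. The window runs from forskolin alone to 1 uM CP55940; curves fitted with a four-parameter logistic model.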
Take `CC(C)(C(=O)Nc1cc(C(F)(F)F)ccn1)S(=O)(=O)c1ccc(S(C)(=O)=O)cc1` [2-methyl-2-{[4-(methylsulfonyl)phenyl]sulfonyl}-N-[4-(trifluoromethyl)pyridin-2-yl]propanamide]: the agonistic activity entry is on record as “agonistic activity”.
For `CC(C)(C(=O)Nc1ccc(C(F)(F)F)cn1)S(=O)(=O)c1ccc(S(C)(=O)=O)cc1` [2-methyl-2-{[4-(methylsulfonyl)phenyl]sulfonyl}-N-[5-(trifluoromethyl)pyridin-2-yl]propanamide], the agonistic activity entry is recorded as “agonistic activity”.
The same measure for `CC(C)(C(=O)Nc1cccc(C(F)(F)F)n1)S(=O)(=O)c1ccc(S(C)(=O)=O)cc1` [2-methyl-2-{[4-(methylsulfonyl)phenyl]sulfonyl}-N-[6-(trifluoromethyl)pyridin-2-yl]propanamide]: “agonistic activity”.
For `CC(C)(C(=O)Nc1nc(C(F)(F)F)cs1)S(=O)(=O)c1ccc(C(F)(F)F)nc1` [2-methyl-2-{[6-(trifluoromethyl)pyridin-3-yl]sulfonyl}-N-[4-(trifluoromethyl)-1,3-thiazol-2-yl]propanamide], the agonistic activity entry is “agonistic activity”.
Turning to `CC(C)(C(=O)Nc1cccc2ccccc12)S(=O)(=O)c1ccc(C(F)(F)F)nc1` [2-methyl-N-1-naphthyl-2-{[6-(trifluoromethyl)pyridin-3-yl]sulfonyl}propanamide], the agonistic activity result was “agonistic activity”.
In the case of `Cn1nc(-c2ccccc2)cc1NC(=O)C(C)(C)S(=O)(=O)c1ccc(S(C)(=O)=O)cc1` [2-methyl-N-(1-methyl-3-phenyl-1H-pyrazol-5-yl)-2-{[4-(methylsulfonyl)phenyl]sulfonyl}propanamide], the agonistic activity entry is recorded as “agonistic activity”.
Take `CCCc1cc(NC(=O)C(C)(C)S(=O)(=O)c2ccc(C(F)(F)F)nc2)on1` [2-methyl-N-(3-propylisoxazol-5-yl)-2-{[6-(trifluoromethyl)pyridin-3-yl]sulfonyl}propanamide]: the agonistic activity entry is “agonistic activity”.
For `CC(C)(C(=O)Nc1nc(-c2ccccc2)cs1)S(=O)(=O)c1ccc(C(F)(F)F)nc1` [2-methyl-N-(4-phenyl-1,3-thiazol-2-yl)-2-{[6-(trifluoromethyl)pyridin-3-yl]sulfonyl}propanamide], the agonistic activity result is recorded as “agonistic activity”.
The same measure for `Cc1sc(NC(=O)C(C)(C)S(=O)(=O)c2ccc(S(C)(=O)=O)cc2)nc1-c1ccccc1` [2-methyl-N-(5-methyl-4-phenyl-1,3-thiazol-2-yl)-2-{[4-(methylsulfonyl)phenyl]sulfonyl}propanamide]: “agonistic activity”; for `Cc1sc(NC(=O)C(C)(C)S(=O)(=O)c2ccc(C(F)(F)F)nc2)nc1-c1ccccc1` [2-methyl-N-(5-methyl-4-phenyl-1,3-thiazol-2-yl)-2-{[6-(trifluoromethyl)pyridin-3-yl]sulfonyl}propanamide]: “agonistic activity”.
In the case of `Cc1ccc(NC(=O)C(C)(C)S(=O)(=O)c2ccc(C(F)(F)F)nc2)nc1` [2-methyl-N-(5-methylpyridin-2-yl)-2-{[6-(trifluoromethyl)pyridin-3-yl]sulfonyl}propanamide], the agonistic activity entry is “agonistic activity”.
Take `CC(C)(C(=O)Nc1nsc(-c2ccccc2)n1)S(=O)(=O)c1ccc(C(F)(F)F)nc1` [2-methyl-N-(5-phenyl-1,2,4-thiadiazol-3-yl)-2-{[6-(trifluoromethyl)pyridin-3-yl]sulfonyl}propanamide]: the agonistic activity entry is recorded as “agonistic activity”.
The same measure for `CC(C)(C(=O)Nc1cccc(C(F)(F)F)c1)S(=O)(=O)c1ccc(C(F)(F)F)nc1` [2-methyl-N-[3-(trifluoromethyl)phenyl]-2-{[6-(trifluoromethyl)pyridin-3-yl]sulfonyl}propanamide]: “agonistic activity”; for `CC(C)(C(=O)Nc1ccc(C(F)(F)F)cc1)S(=O)(=O)c1ccc(C(F)(F)F)nc1` [2-methyl-N-[4-(trifluoromethyl)phenyl]-2-{[6-(trifluoromethyl)pyridin-3-yl]sulfonyl}propanamide]: “agonistic activity”.
Regarding `CC(C)(C(=O)Nc1cccc(C(F)(F)F)n1)S(=O)(=O)c1ccc(C(F)(F)F)nc1` [2-methyl-N-[6-(trifluoromethyl)pyridin-2-yl]-2-{[6-(trifluoromethyl)pyridin-3-yl]sulfonyl}propanamide], the agonistic activity result is on record as “agonistic activity”.
In the case of `CC(C)(C(=O)Nc1ccc2ccccc2n1)S(=O)(=O)c1ccc(C(F)(F)F)nc1` [2-methyl-N-quinolin-2-yl-2-{[6-(trifluoromethyl)pyridin-3-yl]sulfonyl}propanamide], the agonistic activity entry is “agonistic activity”.
Regarding `CC(C)(C(=O)Nc1cnc2ccccc2c1)S(=O)(=O)c1ccc(C(F)(F)F)nc1` [2-methyl-N-quinolin-3-yl-2-{[6-(trifluoromethyl)pyridin-3-yl]sulfonyl}propanamide], the agonistic activity entry is listed as “agonistic activity”.
The same measure for `CC(C)C(C(=O)Nc1ccc(C(F)(F)F)cn1)S(=O)(=O)c1ccc(C(F)(F)F)cc1` (stereo not shown) [3-Methyl-2-(4-trifluoromethyl-benzenesulfonyl)-N-(5-trifluoromethyl-pyridin-2-yl)-butyramide]: “agonistic activity”.
With `CC(C)C(C(=O)Nc1cccc(C(F)(F)F)n1)S(=O)(=O)c1ccc(C(F)(F)F)cc1` (stereo not shown) [3-Methyl-2-(4-trifluoromethyl-benzenesulfonyl)-N-(6-trifluoromethyl-pyridin-2-yl)-butyramide], the agonistic activity entry is “agonistic activity”.
Take `CC(C)(C)c1csc(NC(=O)C2(S(=O)(=O)c3ccc(C(F)(F)F)cc3)CCOCC2)n1` [4-(4-Trifluoromethyl-benzenesulfonyl)-tetrahydro-pyran-4-carboxylic acid (4-tert-butyl-thiazol-2-yl)-amide]: the agonistic activity result is reported as “agonistic activity”.
Regarding `Cn1nc(C(C)(C)C)cc1NC(=O)C1(S(=O)(=O)c2ccc(C(F)(F)F)cc2)CCOCC1` [4-(4-Trifluoromethyl-benzenesulfonyl)-tetrahydro-pyran-4-carboxylic acid (5-tert-butyl-2-methyl-2H-pyrazol-3-yl)-amide], the agonistic activity result is listed as “agonistic activity”.
Turning to `Cc1nc(NC(=O)C2(S(=O)(=O)c3ccc(C(F)(F)F)cc3)CCOCC2)sc1C(C)(C)C` [4-(4-Trifluoromethyl-benzenesulfonyl)-tetrahydro-pyran-4-carboxylic acid (5-tert-butyl-4-methyl-thiazol-2-yl)-amide], the agonistic activity entry is on record as “agonistic activity”.
Regarding `CC(C)(C)c1cc(NC(=O)C2(S(=O)(=O)c3ccc(C(F)(F)F)cc3)CCOCC2)no1` [4-(4-Trifluoromethyl-benzenesulfonyl)-tetrahydro-pyran-4-carboxylic acid (5-tert-butyl-isoxazol-3-yl)-amide], the agonistic activity entry is on record as “agonistic activity”.
On to `O=C(Nc1ccc(C(F)(F)F)cn1)C1(S(=O)(=O)c2ccc(C(F)(F)F)cc2)CCOCC1` [4-(4-Trifluoromethyl-benzenesulfonyl)-tetrahydro-pyran-4-carboxylic acid (5-trifluoromethyl-pyridin-2-yl)-amide], for which the agonistic activity entry is reported as “agonistic activity”.
The same measure for `O=C(Nc1cccc(C(F)(F)F)n1)C1(S(=O)(=O)c2ccc(C(F)(F)F)cc2)CCOCC1` [4-(4-Trifluoromethyl-benzenesulfonyl)-tetrahydro-pyran-4-carboxylic acid (6-trifluoromethyl-pyridin-2-yl)-amide]: “agonistic activity”.
Regarding `CC(C)(C(=O)Nc1nc2ccccc2s1)S(=O)(=O)c1ccc(Cl)cc1F` [N-1,3-benzothiazol-2-yl-2-[(4-chloro-2-fluorophenyl)sulfonyl]-2-methylpropanamide], the agonistic activity result was “agonistic activity”.
On to `CC(C)(C(=O)Nc1nc2ccccc2s1)S(=O)(=O)c1ccc(C(F)(F)F)nc1` [N-1,3-benzothiazol-2-yl-2-methyl-2-{[6-(trifluoromethyl)pyridin-3-yl]sulfonyl}propanamide], for which the agonistic activity result is “agonistic activity”.
Turning to `CC(C)(C(=O)Nc1nc2ccccc2o1)S(=O)(=O)c1ccc(Cl)cc1F` [N-1,3-benzoxazol-2-yl-2-[(4-chloro-2-fluorophenyl)sulfonyl]-2-methylpropanamide], the agonistic activity result is listed as “agonistic activity”.
Turning to `CC(C)(C(=O)Nc1nc2ccccc2o1)S(=O)(=O)c1ccc(S(C)(=O)=O)cc1` [N-1,3-benzoxazol-2-yl-2-methyl-2-{[4-(methylsulfonyl)phenyl]sulfonyl}propanamide], the agonistic activity entry is given as “agonistic activity”.
With `CC(C)(C(=O)Nc1nc2ccccc2o1)S(=O)(=O)c1ccc(C(F)(F)F)nc1` [N-1,3-benzoxazol-2-yl-2-methyl-2-{[6-(trifluoromethyl)pyridin-3-yl]sulfonyl}propanamide] the entry was “agonistic activity”; with `COc1ccc(S(=O)(=O)C(C)(C)C(=O)Nc2c(C)c(-c3ccccc3)nn2C)cc1` [N-(1,4-dimethyl-3-phenyl-1H-pyrazol-5-yl)-2-[(4-methoxyphenyl)sulfonyl]-2-methylpropanamide], “agonistic activity”.
`Cc1c(-c2ccccc2)nn(C)c1NC(=O)C(C)(C)S(=O)(=O)c1ccc(C(F)(F)F)nc1` [N-(1,4-dimethyl-3-phenyl-1H-pyrazol-5-yl)-2-methyl-2-{[6-(trifluoromethyl)pyridin-3-yl]sulfonyl}propanamide]: the agonistic activity result is “agonistic activity”.
As for `CC(C)(C(=O)Nc1ccccc1Cl)S(=O)(=O)c1ccc(C(F)(F)F)cc1` [N-(2-Chloro-phenyl)-2-methyl-2-(4-trifluoromethyl-benzenesulfonyl)-propionamide], the agonistic activity result is “agonistic activity”.
As for `CC(C)(C)c1ccccc1NC(=O)C(C)(C)S(=O)(=O)c1ccc(Cl)cc1` [N-(2-tert-Butyl-phenyl)-2-(4-chloro-benzenesulfonyl)-2-methyl-propionamide], the agonistic activity result was “agonistic activity”.
